A short description of series [1]: PTIO free radical scavenging assay. The format is biochemical. Particulars: 8 μg/mL; SD in brackets. The procedure: PTIO free radical scavenging was also performed following previous reports with some modification. VC was used as the positive control. PTIO radicals were dissolved with phosphate buffer (PBS) (pH 7.4, 50 mM) with a concentration of 0.05 mg/mL. Then, the samples (40 µL, 40 µg/mL) and PTIO solution (160 µL) were added into 96-well plates (as the value of Ai). After being thoroughly mixed, the reaction solution was incubated at 37 °C in a water-bath for 2 h. Then, the absorbance was measured at 557 nm. PTIO free radical scavenging was calculated using the above equation. (40 µL PBS with 160 µL PTIO as A0, 40 µL compounds with 160 µL PBS as Aj).

Series [2] in a line: DPPH free radical scavenging assay. Particulars: for DPPH radical scavenging activity (inhibition rate): 20 μg/mL, SD in brackets. The format is biochemical. On the procedure:
The in vitro antioxidant activity tests were conducted according to previous reports. Among them, the DPPH free radical scavenging assay was slightly modified. Briefly, the DPPH material was precisely weighed, ethanol solution was added to obtain a concentration of 0.1 mmol/L (to use immediately, or store in the dark). Then, the compounds (100 µL, 40 µg/mL) with DPPH solution (100 µL) (Ai) were added to 96-well plates and incubated for 30 min at room temperature. Subsequently, the activity was measured using the Thermo Scientific Varioskan LUX ([…], VL0L00D0, USA), with an absorbance of 570 nm. Vitamin C (VC) (40 µg/mL) was used as the positive control.
Background: The DPPH test is a chemical assay of radical scavenging.

The test system of series [3] is HepG2 cells. The experiment in a line: Cytotoxic activity (MTS assay), HepG2. The format is cell-based, human. Particulars: for inhibition at 10 µM: HepG2, 24 h, read-out: HepG2 inhibition rate; for pIC50: 24 h, MTS. The procedure:
(§1) The tests were conducted according to our previous reports. The cells were grown in DMEM medium supplemented with 10% FBS, penicillin (100 U/mL), and streptomycin (100 μg/mL) in a 37 °C and 5% CO2 incubator. The cytotoxic activities were performed by the MTS assay. Briefly, 28 compounds were dissolved with DMSO. The cells were seeded at 1 × 10^5 cells/mL in 96-well plates (100 µL/well) and cultured for 18 h when the cells filled the bottom of the wells. Then the supernatant was discard, the compounds (10 μM, 100 µL/well) were added to the culture and incubated for 24 h before cell viability measurement. 10 µL MTS reagent (0.5 mg/mL) were added and further incubated for 4 h. Finally, absorbance was read using an automatic micro-plate reader (Molecular Devices, USA) at 490 nm to test the cell viabilities, and the results were presented as the percent of non-treated control for each concentration. Irinotecan was used as the positive control. All measurements were repeated in triplicate. Data were expressed as the mean ± SD.
In general terms: Tetrazolium dyes change colour on reduction, which living cells bring about.

Series [4] has as its system A549 cells. Nature of the series: Cytotoxic activity (MTS assay), A549. The series is classed as cell-based, human. Particulars: for pIC50: MTS. The procedure: as §1
Series [5] concerns MCF7 cells. Nature of the series: Cytotoxic activity (MTS assay), MCF7. The format is cell-based, human. Particulars: for inhibition at 10 µM / pIC50: Homo sapiens, MCF7, 24 h; for inhibition at 10 µM: read-out: MCF7 inhibition rate; for pIC50: MTS. The procedure: as §1
The test system of series [6] is LO2 cells. Nature of the series: Cytotoxic activity (MTS assay), LO2 normal cells. The series is classed as cell-based, human. Particulars: for inhibition at 10 µM: Homo sapiens, L02, read-out: LO2 cell inhibitory activity (Table S7).
Series [7] relates to HepG2, A549 and MCF7 cells. The experiment in a line: Cytotoxic activity (MTS assay), stated jointly for three cancer cell lines. The format is cell-based. Particulars: Homo sapiens, read-out: IC50 values against the three cancer cell lines (range). On the procedure:
as §1

For series [8], the system named is HepG2 cells. The experiment in a line: Cytotoxic activity (MTS assay), HepG2. The format is cell-based, human. Particulars: SD in brackets; for inhibition at 10 µM: Homo sapiens, HepG2, 10 µM, read-out: HepG2 cell inhibitory activity (Table S4).
The subject of series [9] is A549 cells. Nature of the series: Cytotoxic activity (MTS assay), A549. The format is cell-based, human. Particulars: SD in brackets; for inhibition at 10 µM: Homo sapiens, A549, read-out: A549 cell inhibitory activity (Table S5).
In series [10] the test system is MCF7 cells. The experiment in a line: Cytotoxic activity (MTS assay), MCF7. The format is cell-based, human. Particulars: SD in brackets; for inhibition at 10 µM: Homo sapiens, MCF7, read-out: MCF-7 cell inhibitory activity (Table S6).
Series [11] in a line: ABTS free radical scavenging assay. The series is classed as biochemical. Particulars: for ABTS radical scavenging activity (inhibition rate): 20 μg/mL, SD in brackets. On the procedure:
The third assay, the ABTS free radical scavenging screen was performed by previous experiments with slight changes. First, we needed to prepare for the ABTS^+ solution. […] Then, they were mixed with equal volume at room temperature and kept away from light for 12 h, the mixed solution was diluted with ethanol until the absorbance of […]. Thus, the ABTS^+ solution was obtained. Furthermore, the compounds (100 µL, 40 µg/mL) with ABTS^+ solution (100 µL) were also added to the 96-well plates (as the value of Ai) and were interacted for 10 min at room temperature in the dark, then the absorbance at 734 nm was measured. VC was used as the positive control. Antioxidant capacity was calculated according to the first formula (the value of 100 µL ethanol with 100 µL ABTS^+ solution as A0, the value of 100 µL compounds with 100 µL ethanol as Aj). All experiments were carried out in triplicate.

Data on 12 compounds can be found in PMC8658773, “Two New Isoprenoid Flavonoids from Sophora flavescens with Antioxidant and Cytotoxic Activities” (Molecules, 2021).

pIC50: −log10 of the molar value. Read-outs that look alike come from different tables or passages of the source.

In the case of `C=C(C)C(CC=C(C)C)Cc1cc(OC)ccc1C1Oc2cc(O)cc(CC(CC=C(C)C)C(=C)C)c2C(=O)C1O` (centres unmarked) [Compound 1, 7-hydroxy-5,1-bis (5-methyl-2-isopropyl-hexene) -flavanonol], the “PTIO radical scavenging activity (inhibition rate)” value in series [1] was 37.3% (3.4%). Moreover, the “DPPH radical scavenging activity (inhibition rate)” value in series [2] was 40.0% (4.9%). Also, the inhibition at 10 µM worked out at 84% in series [3] (Homo sapiens); 58% in series [4] (Homo sapiens, A549, 10 μM, 24 h, read-out: A549 inhibition rate); 85% in [5]; 29.4% in series [6] (SD in brackets); 84.1% in series [8]; 58% in series [9]. Moreover, the inhibition at 10 µM in series [10] turned out to be 85%. Besides, the pIC50 (commonly −log10 of the IC50, conventionally taken in molar units) was 5.02 in series [3] (Homo sapiens, HepG2); 4.98 in series [4] (Homo sapiens, A549, 24 h); 5.12 in series [5]; 4.98 to 5.12 in series [7]. Further, the “Cytotoxic effect on LO2 human normal cells (in words)” value in [6] (compared with cancer cells) is “little effect”.
Consider kushenol A [Compound 13], for which the “ABTS radical scavenging activity (inhibition rate)” value in series [11] is 81.5% (1.9%). In addition, the “PTIO radical scavenging activity (inhibition rate)” value in series [1] is 35.6% (1.0%). In series [2], the “DPPH radical scavenging activity (inhibition rate)” value is 25.6% (2.4%). This compound also had a negative logarithm of the IC50 (pIC50) in series [3] of 5.16. Besides, the “Inhibition of A549 cells (in words)” value in [4] is “could hardly inhibit”. The “Inhibition of MCF7 cells (in words)” value in series [5] is “could hardly inhibit”. In series [6] (10 μg/mL, SD in brackets), the “LO2 cell inhibitory activity (Table S7)” value is listed as 26.8% (2.7%). Moreover, the “HepG2 cell inhibitory activity (Table S4)” value in series [8] (10 μg/mL) is 97.5% (0.1%). Besides, the “A549 cell inhibitory activity (Table S5)” value in [9] (10 μg/mL) is given as 17.6% (0.6%). Besides, the “MCF-7 cell inhibitory activity (Table S6)” value in series [10] (10 μg/mL) is 11.5% (2.1%).
For the compound `C=C(C)C(CCC(C)(C)O)Cc1c(O)cc(OC)c2c1OC(c1ccc(O)cc1O)C(O)C2=O` (centres unmarked) [Compound 4, kushenol L], in [11], the “ABTS radical scavenging IC50” value amounted to 3.72 mg/L. Further, the “PTIO radical scavenging activity (inhibition rate)” value in series [1] was 39.4% (1.3%). In addition, the “DPPH radical scavenging activity (inhibition rate)” value in series [2] was 37.1% (3.0%). The inhibition at 10 µM in series [3] (Homo sapiens) is 4.6%; in series [5] it was 0.7%; in series [6] (SD in brackets), 3.2%; in [8] it was 4.6%; in series [9], 8.2%; in series [10] it was -0.7%.
For the compound `O=c1c(-c2ccc(O)cc2)coc2cc(O)cc(O)c12` [Compound 18, genistein], in series [11], the “ABTS radical scavenging activity (inhibition rate)” value was 69.0% (1.4%). Also, the “PTIO radical scavenging activity (inhibition rate)” value in series [1] is given as 35.8% (2.0%). In addition, the “DPPH radical scavenging activity (inhibition rate)” value in series [2] is given as 28.0% (6.2%). The inhibition at 10 µM in [6] (SD in brackets) stood at 5%; in series [8] it was 1%; in series [9] it was 6.6%; in [10], 4.3%.
For the compound `C=C(C)C(CC=C(C)C)Cc1c(O)c(OC)c2c(c1O)C(=O)C(O)C(c1ccc3c(c1)OCO3)O2` (centres unmarked) [Compound 2, 5,7-dihydroxy-8-methoxy-6-(5-methyl-2-iso-hexenyl)-3′,4′-methylene dioxy-flavanonol], the “ABTS radical scavenging IC50” value in [11] came to 1.81 mg/L. Also, the “PTIO radical scavenging activity (inhibition rate)” value in [1] is on record as 41.0% (2.6%). Moreover, in series [2], the “DPPH radical scavenging activity (inhibition rate)” value is 42.3% (1.5%). Also, the inhibition at 10 µM in series [3] (Homo sapiens) came out at 19.9%; in series [5] it was 10.3%; in [6] (SD in brackets), 27.9%; in series [8] it was 19.9%; in series [9], 17.2%; in series [10], 10.3%.
Turning to `COc1ccc(C(=O)O)c(O)c1` [Compound 26, 4-methoxysalicylic acid], the “ABTS radical scavenging activity (inhibition rate)” value in series [11] is on record as 72.9% (3.0%). Further, the “PTIO radical scavenging activity (inhibition rate)” value in [1] is 37.7% (1.6%). Further, the “DPPH radical scavenging activity (inhibition rate)” value in [2] is on record as 25.4% (4.9%). The inhibition at 10 µM in series [6] (SD in brackets) was -6.2%; in series [8] it was 1.5%; in [9] it was 9.4%; in series [10], 0.7%.
As for `O=C(O)c1ccc(O)cc1` [Compound 28, 4-hydroxybenzoic acid], the “ABTS radical scavenging activity (inhibition rate)” value in series [11] was 2.2% (0.9%). Further, in [1], the “PTIO radical scavenging activity (inhibition rate)” value is recorded as 37.3% (2.3%). Further, the “DPPH radical scavenging activity (inhibition rate)” value in series [2] is recorded as 20.4% (8.6%). Besides, the inhibition at 10 µM in [6] (SD in brackets) stood at 2.8%; in series [8], 10.2%; in [9], 15.5%; in series [10], 1.1%.
Consider `C=C(C)[C@H](CCC(C)(C)O)Cc1c(O)cc(OC)c2c1O[C@H](c1ccc(O)cc1O)[C@@H](O)C2=O` [Compound 3, kushenol H], for which the “ABTS radical scavenging IC50” value in series [11] was found to be 2.05 mg/L. Moreover, the “DPPH radical scavenging activity (inhibition rate)” value in [2] is given as 53.5% (0.4%). Also, the inhibition at 10 µM was 1.9% in [3] (Homo sapiens); 4.5% in series [5]; 15.5% in [6] (SD in brackets); 1.9% in series [8]; 11.3% in series [9]; -4.5% in [10].
For `O=c1ccc2ccc(O)c(O)c2o1` [Compound 25, 7,8-dihydroxycoumarin], the “ABTS radical scavenging activity (inhibition rate)” value in series [11] is 97.8% (1.8%). Also, the “PTIO radical scavenging activity (inhibition rate)” value in series [1] was 46.3% (4.8%). In [2], the “DPPH radical scavenging IC50” value worked out at 0.80 mg/L. The inhibition at 10 µM in series [6] (SD in brackets) stood at 8.6%; in series [8], 8.5%; in [9], 32.4%; in series [10], 4.8%.
For the compound `CCc1c2c(nc3ccc(OC(=O)N4CCC(N5CCCCC5)CC4)cc13)-c1cc3c(c(=O)n1C2)COC(=O)[C@]3(O)CC` [irinotecan, reference compound], the pIC50 in [3] (Homo sapiens, HepG2) is 6.22; in [4] (Homo sapiens, A549, 24 h) it was 6.00; in [5], 6.05.
Take `O=C1C[C@@H](c2ccc(O)cc2)Oc2cc(O)cc(O)c21` [Compound 11, naringenin]: the “ABTS radical scavenging activity (inhibition rate)” value in series [11] was 55.4% (2.2%). In addition, in [1], the “PTIO radical scavenging activity (inhibition rate)” value was 37.8% (2.2%). For the same compound, in [2], the “DPPH radical scavenging activity (inhibition rate)” value was 24.5% (3.9%). Further, the inhibition at 10 µM worked out at 5.8% in [6] (SD in brackets), 3.6% in [8], 14.7% in series [9] and 0.7% in series [10].
As to `O=c1cc(-c2ccc(O)c(O)c2)oc2cc(O)cc(O)c12` [Compound 23, luteolin], in series [11], the “ABTS radical scavenging IC50” value was found to be 1.51 mg/L. Also, in series [1], the “PTIO radical scavenging activity (inhibition rate)” value is recorded as 43.3% (2.0%). Besides, in series [2], the “DPPH radical scavenging IC50” value is 0.90 mg/L. Moreover, the inhibition at 10 µM in series [6] (SD in brackets) is 19.8%; in [8] it was 1.1%; in series [9], 41.3%; in series [10], -4.7%.
